{"source": "patent US6846659B2", "about": "“Isolation and bacterial expression of a sesquiterpene synthase cDNA clone from peppermint (Mentha x piperita, L.) that produces the aphid alarm pheromone (E)-β-farnesene” (Washington State University Research Foundation, priority 1997, dated 2005)", "molecules": {"B1": {"name": "recombinant (E)-β-farnesene synthase (SEQ ID NO:2) (Mentha x piperita) (protein)", "chain": "MATNGVVISCLREVRPPMTKHAPSMWTDTFSNFSLDDKEQQKCSETIEALKQEARGMLMAATTPLQQMTLIDTLERLGLSFHFETEIEYKIELINAAEDDGFDLFATALRFRLLRQHQRHVSCDVFDKFIDKDGKFEESLSNNVEGLLSLYEAAHVGFREERILQEAVNFTRHHLEGAELDQSPLLIREKVKRALEHPLHRDFPIVYARLFISIYEKDDSRDELLLKLSKVNFKFMQNLYKEELSQLSRWWNTWNLKSKLPYARDRVVEAYVWGVGYHYEPQYSYVRMGLAKGVLICGIMDDTYDNYATLNEAQLFTQVLDKWDRDEAERLPEYMKIVYRFILSIYENYERDAAKLGKSFAAPYFKETVKQLARAFNEEQKWVMERQLPSFQDYVKNSEKTSCIYTMFASIIPGLKSVTQETIDWIKSEPTLATSTAMIGRYWNDTSSQLRESKGGEMLTALDFHMKEYGLTKEEAASKFEGLVEETWKDINKEFIATTNYNVGREIAITFLNYARICEASYSKTDGDAYSDPNVAKANVVALFVDAIVF", "notes": "made in house; host or cells: E. coli XL1-Blue harboring pBluescript clone p43"}}, "key": {"[1]": {"system": "whiteflies", "settings": "vapor; cited from earlier work"}, "[2]": {"system": "aphids", "settings": "dose of 100 ng/aphid; cited from earlier work"}, "[3]": {"target": "T1, recombinant (E)-β-farnesene synthase (SEQ ID NO:2) (Mentha piperita, UniProt O48935)", "T1 construct": "made in house; host or cells: E. coli XL1-Blue harboring pBluescript clone p43", "T1 sequence (O48935 1-550)": "B1 chain", "experiment": "Kinetic characterization of recombinant, partially purified (E)-β-farnesene synthase (sesquiterpene/monoterpene/diterpene synthase assay)", "type": "biochemical, peppermint (Mentha piperita)", "procedure": "(§1) Cell-Free Assays. […] The sonicate was centrifuged at 3700×g for 15 minutes, and an aliquot of the supernatant was then placed in a 10 ml screw-capped glass test tube containing divalent metal ions (10 mM MgCl2 and 1 mM MnCl2) and substrate (7.3 μM [1-^3H]FDP). The aqueous layer was overlaid with 1 ml pentane and the seated tube was incubated at 30° C. for two hours. The pentane overlay was then collected and the aqueous layer was extracted twice (1 ml) with pentane. The combined pentane extracts were passed through an anhydrous MgSO4-silica gel column to obtain the labeled hydrocarbon fraction for GC-MS analysis, or for radio-GC analysis using peppermint oil as an internal standard.\n(§2) The chilled sonicate was cleared by centrifugation and the supernatant was assayed for sesquiterpene synthase activity as before, or for monoterpene synthase activity (with 4.5 μM [1-^3H]GDP) or diterpene synthase activity (with 10 μM [1-^3H]GGDP). In all cases, the pentane-soluble reaction products were purified by MgSO4-silica gel chromatography, as above, to prepare the olefin fraction for further analysis.\n(§3) For determination of the pH optimum of (E)-β-farnesene synthase (SEQ ID NO:2), the preparation was adjusted with 50 mM Mopso (to a pH of 6.5, 6.75, 7.0, 7.25, 7.5, 8.0, or 8.5) before the assay. Kinetic constants for FDP, GDP, Mg^++ and Mn^++ were determined using a preparation of (E)-β-farnesene synthase (SEQ ID NO:2) that was partially purified by anion-exchange chromatography (on a Mono-Q column (Pharmacia) equilibrated with assay buffer and eluted with a linear KCl gradient (0 to 500 mM) in assay buffer). The 210-230 mM fraction containing the (E)-β-farnesene synthase (SEQ ID NO:2) was used for kinetic evaluation of FDP and GDP as substrates (concentration range 0.31 to 20 μM, with saturating Mg^++). […] Kinetic constants for Mg^++ and Mn^++ (assay range 1 μM to 2 mM of the chloride salts) were then determined at 7.3 μM [1-^3H]FDP. […]"}, "[4]": {"substrate": "CC(C)=CCC/C(C)=C/CC/C(C)=C/CO[P@@](=O)(O)OP(=O)(O)O", "experiment": "Kinetic characterization of recombinant, partially purified (E)-β-farnesene synthase (sesquiterpene/monoterpene/diterpene synthase assay)", "type": "biochemical, peppermint (Mentha piperita)", "settings": "other: substrate range 0.31 to 20 μM, saturating Mg++; double reciprocal plot", "procedure": "as §1, §2, §3"}}}
{"molecule": "C=CC(=C)CC/C=C(\\C)CCC=C(C)C", "note": "[(E)-β-farnesene]", "values": [{"measurement": "toxicity to whiteflies", "setting": "[1]", "value": "toxic"}, {"measurement": "acute toxicity to aphids", "setting": "[2]", "value": "acutely toxic"}]}
{"molecule": "CC(C)=CCC/C(C)=C/COP(=O)(O)OP(=O)(O)O", "note": "[GDP, geranyl diphosphate]", "values": [{"measurement": "Km", "setting": "[3]; substrate range 0.31 to 20 μM, saturating Mg++, double reciprocal plot", "value": 1.5, "unit": "µM"}]}
{"molecule": "CC(C)=CCC/C(C)=C/CC/C(C)=C/CC/C(C)=C/COP(=O)(O)OP(=O)(O)O", "note": "[[1-^3H]GGDP, geranylgeranyl diphosphate]", "values": [{"measurement": "activity of the synthase with the substrate analog", "setting": "[3]; C20 substrate analog, 10 μM", "value": "inactive"}]}
{"molecule": "B1", "values": [{"measurement": "Km", "setting": "[4]", "value": 0.6, "unit": "µM"}]}
